Assay results: patent US8703749B2, “Compositions and methods for treating Friedreich's Ataxia” (priority 2009, dated 2014)

How the values were obtained:
[1] = tested on: FRDA lymphoblasts GM16798; assay: Intracellular ATP content in FRDA lymphoblasts; type: cell-based, human; settings: 50 μM, 6 days
Procedure: (§1) FRDA lymphoblasts and fibroblasts were washed twice with ice-cold Dulbecco's Phosphate Buffered Saline (DPBS) and lysed in CelLytic M buffer (Sigma-Aldrich) supplemented with Complete protease inhibitor cocktail, EDTA-free (Roche). Aconitase activity was measured spectrophotometrically at 340 nm by a coupled reaction of aconitase and isocitrate dehydrogenase. The assay reactions contained […] of cell extract in 50 mM Hepes pH 7.4, 1 mM sodium citrate, 0.6 mM MnCl2, 0.2 mM NADP^+ and 2 U/ml isocitrate dehydrogenase (Sigma-Aldrich). Citrate synthase activity was assessed using […] of cell extract with the Citrate Synthase Assay Kit (Sigma-Aldrich CS0720). The aconitase activities were normalized with respect to citrate synthase ratios; one milliunit of enzyme was defined as the amount of protein that converted 1 nmol of NADP^+ in 1 min at 25° C. The intracellular ATP content was measured in black microtiter plates using […] of cell extract with the ATP Bioluminescence Assay Kit CLS II (Roche) according to the manufacturer's protocol.
(§2) FRDA lymphoblasts GM16798 were left untreated or treated for 6 days with 50 μM Formula IV. Their genetically-related healthy control GM16241 lymphoblasts were left untreated. […] Aconitase activity and ATP levels were measured as described previously.

[2] = tested on: FRDA fibroblasts GM03816; assay: Intracellular ATP content in FRDA fibroblasts; type: cell-based, human; settings: 100 μM, 3 days
Procedure: as §1, with “The aconitase activities were normalized with respect to citrate synthase ratios; one milliunit of enzyme was defined as the amount of protein that converted 1 nmol of NADP^+ in 1 min at 25° C.” left out
FRDA fibroblasts GM03816 were treated for 3 days with 100 μM Formula IV. Cells were then fixed, stained with anti-frataxin antibody or anti-Bcl2, as a control, and analyzed by flow cytometry. […] Total cell extracts were resolved on SDS-PAGE and analyzed with anti-frataxin antibody, or anti-tubulin, as a loading control. […] ATP levels were quantitated as described previously.

[3] = molecular target: T1, frataxin (Homo sapiens, UniProt Q16595); assay: Frataxin accumulation in FRDA lymphoblasts (FACS, SDS-PAGE/western blot); type: cell-based; settings: 50 μM, 6 days
T1 sequence (Q16595 42-210): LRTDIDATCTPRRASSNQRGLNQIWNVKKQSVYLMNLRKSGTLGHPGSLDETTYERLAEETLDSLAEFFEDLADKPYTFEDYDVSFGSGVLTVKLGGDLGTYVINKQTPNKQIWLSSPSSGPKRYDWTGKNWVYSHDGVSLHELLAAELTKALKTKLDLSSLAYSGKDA
Procedure: Human embryonic kidney HEK-293 cells and Hela cells were maintained in DMEM supplemented with 10% FBS. HEK-293 were transfected with the calcium/phosphate precipitation method, using 20 μg total DNA (10 μg pIRES-frataxin and 10 μg HA-Ub, or corresponding empty vectors) on 10 cm dishes. Hela cells were transfected using Lipofectamine 2000 reagents (Invitrogen), according to manufacturer's instructions. Where indicated, the day after transfection, cells were treated for 16 h with 10 μM proteasome inhibitors, MG132 or Lactacystin, or 50 ng/ml DUB inhibitor Ubiquitin-Aldehyde. Flp-In-HEK-293 cells (Invitrogen) are HEK-293 variants allowing the stable and isogenic integration and expression of a transfected gene. Flp-In-HEK-293 cells were maintained in DMEM supplemented with 10% FBS and transfected with the calcium/phosphate precipitation method. Briefly, cells were plated on 10 cm dishes and transfected with 10 μg total DNA. The HEK-293 clone stably expressing frataxin^1-210 was previously described (4). […]
(§3) Cell extracts were prepared in modified RIPA buffer (10 mM sodium phosphate pH7.2, 150 mM NaCl, 1% Na deoxycholate, 0.1% SDS, 1% Np40, 2 mM EDTA) or IP buffer (50 mM Tris-HCl, pH 7.5, 150 mM NaCl, 1% Nonidet P-40, 5 mM EDTA, 5 mM EGTA) supplemented with Complete protease inhibitor cocktail and 2 mM N-Ethylmaleimide (NEM). For immunoblotting, 100 μg of protein extract were separated on 12% SDS-PAGE, blotted onto nitrocellulose membrane and detected with specific antibodies. […] Immunocomplexes were then resolved and analysed by SDS-PAGE. […]
Cells were collected after the indicated treatments and fixed for 20 minutes in 4% paraformaldehyde at room temperature. […] After washing 3 times with PBS cells were analyzed by flow cytometry (Becton Dickinson).
FRDA lymphoblasts GM15850 were cultured for 6 days in the presence of 50 μM Formula IV or Formula VI. Cells were then fixed, stained with anti-frataxin antibody or anti-Bcl2, as a control, and analyzed by flow cytometry. […]

[4] = molecular target: T1, frataxin; assay: Frataxin accumulation in FRDA fibroblasts (FACS, SDS-PAGE/western blot); type: cell-based; set-up: HEK-293 Flp-In cells stably transfected with frataxin^1-210; expressed in transfected cells; settings: FRDA fibroblasts GM03816; 100 μM; 3 days
Procedure: Human embryonic kidney HEK-293 cells and Hela cells were maintained in DMEM supplemented with 10% FBS. HEK-293 were transfected with the calcium/phosphate precipitation method, using 20 μg total DNA (10 μg pIRES-frataxin and 10 μg HA-Ub, or corresponding empty vectors) on 10 cm dishes. Hela cells were transfected using Lipofectamine 2000 reagents (Invitrogen), according to manufacturer's instructions. Where indicated, the day after transfection, cells were treated for 16 h with 10 μM proteasome inhibitors, MG132 or Lactacystin, or 50 ng/ml DUB inhibitor Ubiquitin-Aldehyde. […]
as §3
Cells were collected after the indicated treatments and fixed for 20 minutes in 4% paraformaldehyde at room temperature. […] After washing 3 times with PBS cells were analyzed by flow cytometry (Becton Dickinson). […]

[5] = tested on: aconitase; assay: Aconitase assay in FRDA lymphoblasts; type: cell-based, human; settings: FRDA lymphoblasts GM16798; 50 μM; 6 days
Procedure: as §1, §2

[6] = molecular target: T1, frataxin; assay: Frataxin accumulation in HEK-293 Flp-In cells stably expressing frataxin 1-210 (WB, FACS); type: cell-based; set-up: HEK-293 Flp-In cells stably transfected with frataxin^1-210; expressed in transfected cells; settings: HEK-293 Flp-In frataxin 1-210; 100 μM; 18 hours
Procedure: Human embryonic kidney HEK-293 cells and Hela cells were maintained in DMEM supplemented with 10% FBS. HEK-293 were transfected with the calcium/phosphate precipitation method, using 20 μg total DNA (10 μg pIRES-frataxin and 10 μg HA-Ub, or corresponding empty vectors) on 10 cm dishes. Hela cells were transfected using Lipofectamine 2000 reagents (Invitrogen), according to manufacturer's instructions. Where indicated, the day after transfection, cells were treated for 16 h with 10 μM proteasome inhibitors, MG132 or Lactacystin, or 50 ng/ml DUB inhibitor Ubiquitin-Aldehyde. Flp-In-HEK-293 cells (Invitrogen) are HEK-293 variants allowing the stable and isogenic integration and expression of a transfected gene. Flp-In-HEK-293 cells were maintained in DMEM supplemented with 10% FBS and transfected with the calcium/phosphate precipitation method. Briefly, cells were plated on 10 cm dishes and transfected with 10 μg total DNA. The HEK-293 clone stably expressing frataxin^1-210 was previously described (4). The HEK-293 clone stably expressing frataxin^K147R was obtained from cultures in selection medium containing 100 μg/ml hygromycin B (Invitrogen). FRDA lymphoblasts GM15850, GM16798 and […], as well control lymphoblasts GM15851, GM16241 and GM16215, were maintained in RPMI supplemented with 15% FBS. Treatments with specific ubiquitin-competing molecules were performed in 20% FBS containing medium. FRDA fibroblasts GM03816 were maintained in DMEM supplemented with 15% FBS.
Cell extracts were prepared in modified RIPA buffer (10 mM sodium phosphate pH7.2, 150 mM NaCl, 1% Na deoxycholate, 0.1% SDS, 1% Np40, 2 mM EDTA) or IP buffer (50 mM Tris-HCl, pH 7.5, 150 mM NaCl, 1% Nonidet P-40, 5 mM EDTA, 5 mM EGTA) supplemented with Complete protease inhibitor cocktail and 2 mM N-Ethylmaleimide (NEM). For immunoblotting, 100 μg of protein extract were separated on 12% SDS-PAGE, blotted onto nitrocellulose membrane and detected with specific antibodies. For in vivo detection of ubiquitin-conjugates […] and 50 ng/ml Ubiquitin-Aldehyde were added to the lysis buffer. For immunoprecipitation, 5 mg of total protein extract prepared as above were incubated for 1-2 h at 4° C. with specific antibodies, previously conjugated to Protein G-sepharose (GE Healthcare). Immunocomplexes were then resolved and analysed by SDS-PAGE. […] Densitometric analysis was performed using ImageJ software.
Cells were collected after the indicated treatments and fixed for 20 minutes in 4% paraformaldehyde at room temperature. Cells were then permeabilized and blocked in a blocking solution (3% FBS in PBS) containing 0.2% Triton, for 1 hour at room temperature. Cells were then incubated overnight at 4° C. with anti-frataxin monoclonal antibody (MAB-10485, Immunological Science) or anti-Bcl2 monoclonal antibody (sc-509, Santa Cruz) diluted 1:200 in blocking solution. Cells were then washed 3 times in PBS and incubated for 1 hour at room temperature with FITC-conjugated goat anti-mouse IgG/IgM (BD Bioscience Pharmingen) diluted 1:200 in blocking solution. After washing 3 times with PBS cells were analyzed by flow cytometry (Becton Dickinson).
HEK-293 Flp-In cells stably transfected with frataxin^1-210 were treated for the indicated times with 10 μM MG132. Total cell extracts were blotted as in A. One representative experiment out of four performed with similar results is shown in FIG. 18.
Formula III induces frataxin precursor accumulation. HEK-293 Flp-In cells stably expressing frataxin^1-210 were treated for the indicated days with 20 μM of Formula III or 10 μM MG132. Total cell extracts were resolved on SDS-PAGE and analyzed with anti-frataxin antibody, or anti-tubulin, as a loading control.
Formula III induces mature frataxin accumulation. HEK-293 Flp-In cells stably expressing frataxin^1-210 were treated and analyzed as in B. One representative experiment out of three performed with similar results is shown FIG. 5C. […]

[7] = tested on: FRDA cells; assay: Tolerability by FRDA cells; type: cell-based, human; settings: among the different ubiquitin-competing molecules

O=[N+]([O-])c1cccc(/C=N/NS(=O)(=O)c2ccc(Cl)cc2)c1O [Formula IV]
ATP levels [1]: significantly boost | ATP levels [2]: Rescue of ATP levels can also be achieved | accumulation of mature frataxin by SDS-PAGE and western blot ([3]; FRDA lymphoblasts GM15850, GM16798 and GM16214): accumulation of mature frataxin can be detected | frataxin accumulation by FACS analysis ([3]; FRDA lymphoblasts GM15850): discrete frataxin accumulation detectable in all cells | frataxin accumulation by FACS and SDS-PAGE/western blot [4]: frataxin accumulation can be detected as early as 3 days of treatment | aconitase activity [5]: significantly boost | frataxin accumulation by WB and FACS analysis [6]: effective in inducing frataxin accumulation | tolerability by FRDA cells [7]: best tolerated
